Like-named read-outs stand apart in the source and are kept apart here. Starred links: 1 amine or outer side, 2 acyl side, 3 side chain; linkers in the order of their positions; H or OH if unused. Non-standard residues stand in square brackets, D forms with d. Residues, ends and D or L forms follow the SMILES beside them. Groups on a side chain read outwards from the residue. *: point of attachment. C18 diacid = O=C(O)CCCCCCCCCCCCCCCCC(=O)*; γGlu = O=C(O)[C@H](CCC(=O)[*:2])N[*:1]; AEEA = NCCOCCOCC(=O)O; Aib = CC(C)(N)C(=O)O
Legend:
human CRF2α receptor = biological target: T1, human CRF2α receptor (Homo sapiens, UniProt Q13324); test: cAMP agonism at human CRF2 α receptor in TeloHEAC cells (Example 7); type: cell-based; conditions: cAMP HTRF, TeloHEAC cells stably expressing human CRF2 α
T1 construct: expressed in transfected cells; host or cells: TeloHEAC
T1 sequence (Q13324 1-411): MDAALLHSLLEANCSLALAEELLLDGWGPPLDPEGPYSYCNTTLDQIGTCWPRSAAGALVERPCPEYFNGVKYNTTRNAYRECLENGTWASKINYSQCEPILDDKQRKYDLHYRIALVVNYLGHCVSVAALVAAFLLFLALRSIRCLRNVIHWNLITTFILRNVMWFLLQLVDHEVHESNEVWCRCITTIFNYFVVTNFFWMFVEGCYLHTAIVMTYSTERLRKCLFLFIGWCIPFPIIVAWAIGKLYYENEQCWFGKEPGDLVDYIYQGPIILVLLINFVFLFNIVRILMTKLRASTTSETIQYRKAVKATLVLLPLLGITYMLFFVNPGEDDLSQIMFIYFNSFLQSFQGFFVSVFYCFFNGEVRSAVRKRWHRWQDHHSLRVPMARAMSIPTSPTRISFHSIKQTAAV
How it was run: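 Percent activation was referenced to 1000 nM UCN2 (100%), and EC50 values taken as concentrations giving half of maximal response. The read-out was a homogeneous time-resolved fluorescence cAMP kit, fluorescence ratio 665/620 nm. Thawed cells (2000/well) saw compound for 30 min at RT in buffer with 2 mM IBMX and 0%/0.1% HSA.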

CRF1R receptor = biological target: T2, CRF1R receptor (Homo sapiens, UniProt P34998); test: cAMP activity at anti-target CRF1R, CHO-K1 cell line clone 2 (Example 19.10); type: cell-based; conditions: CRF1R CHO-K1 clone 2; for EC50: 0% HSA, read-out: EC50 [nM] 0% HSA; for Emax: 100% = Sauvagine at 100 nM
T2 construct: host or cells: CHO-K1 clone 2
T2 sequence (P34998 24-415): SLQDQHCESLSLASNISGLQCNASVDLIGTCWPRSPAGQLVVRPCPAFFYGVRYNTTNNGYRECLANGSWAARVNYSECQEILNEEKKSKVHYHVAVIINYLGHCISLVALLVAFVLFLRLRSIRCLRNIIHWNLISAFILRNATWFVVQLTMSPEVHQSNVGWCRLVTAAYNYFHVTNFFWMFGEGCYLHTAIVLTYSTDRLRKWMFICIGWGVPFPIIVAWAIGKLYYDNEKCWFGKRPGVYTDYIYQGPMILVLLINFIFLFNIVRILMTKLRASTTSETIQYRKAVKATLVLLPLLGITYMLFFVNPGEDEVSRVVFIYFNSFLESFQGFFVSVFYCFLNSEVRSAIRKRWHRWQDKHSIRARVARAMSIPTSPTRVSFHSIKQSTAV
How it was run: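 A CRF1R-overexpressing CHO-K1 line (clone 2) was grown in F12/10% FBS/G418 and frozen in aliquots before use. The cAMP assay followed the preceding procedure, with 100% activation defined by Sauvagine at 100 nM.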

[1] = 0% HSA, read-out: EC50 [nM], 0% HSA
[2] = 0.1% HSA, read-out: EC50 [nM], 0.1% HSA

EC50 (human CRF2α receptor; [1])	EC50 (human CRF2α receptor; [2])	EC50 (CRF1R receptor)	Emax (CRF1R receptor)	SMILES
0.04 nM	1.71 nM	> 100 nM	6.9%	CC[C@H](C)[C@H](N)C(=O)N[C@H](C(=O)N[C@@H](CC(C)C)C(=O)N[C@@H](CO)C(=O)N[C@@H](CC(C)C)C(=O)N[C@@H](CC(=O)O)C(=O)N[C@H](C(=O)N1CCC[C@H]1C(=O)N[C@H](C(=O)N[C@@H](CCCCN)C(=O)N[C@@H](CC(C)C)C(=O)N[C@@H](CCCCNC(=O)COCCOCCNC(=O)COCCOCCNC(=O)CC[C@H](NC(=O)CCCCCCCCCCCCCCCCC(=O)O)C(=O)O)C(=O)N[C@@H](CCC(N)=O)C(=O)N[C@H](C(=O)N[C@@H](CC(C)C)C(=O)N[C@@H](CC(C)C)C(=O)N[C@@H](CCCCN)C(=O)N[C@@H](CCC(N)=O)C(=O)N[C@@H](CCC(=O)O)C(=O)N[C@@H](CCCNC(=N)N)C(=O)N[C@@H](CCC(N)=O)C(=O)N[C@@H](CCCCN)C(=O)N[C@@H](CCCCN)C(=O)N[C@@H](CCC(N)=O)C(=O)N[C@@H](CCCNC(=N)N)C(=O)N[C@@H](CCC(N)=O)C(=O)N[C@@H](CCC(N)=O)C(=O)N[C@@H](C)C(=O)N[C@@H](CCC(=O)O)C(=O)N[C@@H](CCCCN)C(=O)N[C@@H](CC(N)=O)C(=O)N[C@@H](CCCCN)C(=O)N[C@@H](CCC(N)=O)C(=O)N[C@H](C(=O)N[C@@H](CC(C)C)C(=O)N[C@@H](C)C(=O)N[C@@H](CCC(N)=O)C(=O)N[C@H](C(N)=O)C(C)C)[C@@H](C)CC)[C@@H](C)CC)[C@@H](C)CC)C(C)C)C(C)C [compound 122] (H-IVLSLDVPIKLK([AEEA-AEEA-γGlu-C18 diacid])QILLKQERQKKQRQQAEKNKQILAQV-NH2; N-terminus assumed)
0.33 nM	9.74 nM	> 100 nM	9%	CC[C@H](C)[C@H](N)C(=O)N[C@H](C(=O)N[C@@H](CC(C)C)C(=O)N[C@@H](CO)C(=O)N[C@@H](CC(C)C)C(=O)N[C@@H](CC(=O)O)C(=O)N[C@H](C(=O)N1CCC[C@H]1C(=O)N[C@H](C(=O)N[C@@H](CCCCN)C(=O)N[C@@H](CC(C)C)C(=O)N[C@@H](CCCCNC(=O)COCCOCCNC(=O)COCCOCCNC(=O)CC[C@H](NC(=O)CCCCCCCCCCCCCCCCC(=O)O)C(=O)O)C(=O)N[C@@H](CCC(N)=O)C(=O)N[C@H](C(=O)N[C@@H](CC(C)C)C(=O)N[C@@H](CC(C)C)C(=O)N[C@@H](CCC(=O)O)C(=O)N[C@@H](CCC(N)=O)C(=O)N[C@@H](C)C(=O)N[C@@H](CCCNC(=N)N)C(=O)N[C@@H](CCC(N)=O)C(=O)N[C@@H](CCCCN)C(=O)NC(C)(C)C(=O)N[C@@H](CCC(N)=O)C(=O)N[C@@H](CCCNC(=N)N)C(=O)N[C@@H](C)C(=O)N[C@@H](CCC(N)=O)C(=O)N[C@@H](C)C(=O)N[C@@H](CCC(=O)O)C(=O)N[C@@H](CCCCN)C(=O)N[C@@H](CC(N)=O)C(=O)N[C@@H](CCCCN)C(=O)N[C@@H](CCCNC(=N)N)C(=O)N[C@H](C(=O)N[C@@H](CC(C)C)C(=O)N[C@@H](CCC(=O)O)C(=O)N[C@@H](CCCNC(=N)N)C(=O)N[C@H](C(N)=O)C(C)C)[C@@H](C)CC)[C@@H](C)CC)[C@@H](C)CC)C(C)C)C(C)C [compound 123] (H-IVLSLDVPIKLK([AEEA-AEEA-γGlu-C18 diacid])QILLEQARQK[Aib]QRAQAEKNKRILERV-NH2; N-terminus assumed)

— patent US12679878B2, “CRF2 receptor agonists and their use in therapy” (SANOFI, priority 2020, dated 2026)
